Results reported in US20130303487A1, “Compositions Comprising Zoledronic Acid or Related Compounds for Relieving Inflammatory Pain and Related Conditions” (priority 2012, published 2013).
Read-outs that look alike come from different tables or passages of the source.

Experiments:
[1] = tested on: complex regional pain syndrome (CRPS); assay: rat tibia fracture model of complex regional pain syndrome (CRPS): von Frey, weight bearing, edema, warmth; format: in vivo; settings: oral 18 mg/m^2/day (3 mg/kg/day) for 28 days
Protocol: The effect of orally administered zoledronic acid was examined in the rat tibia fracture model of complex regional pain syndrome (CRPS). CRPS was induced in the rats by fracturing the right distal tibias of the animals and casting the fractured hindpaws for 4 weeks, as described in Guo T Z et al. (Pain. 2004; 108:95-107).
Animals were orally administered either vehicle (control) or zoledronic acid, in a dosage of 18 mg/m^2/day (3 mg/kg/day) for 28 days, starting on the day of fracture and casting. Drug was dissolved in distilled water and administered by gavage. Animals were fasted for 4 hours before and 2 hours after dosing. At the end of the 28-day period, casts were removed, and on the following day, the rats were tested for hindpaw pain, edema, and warmth.
Pain was assessed by measuring hyperalgesia, and weight bearing. […]
An incapacitance device (IITC Inc. Life Science, Woodland, Calif., USA) was used to measure hindpaw weight bearing, a postural effect of pain. […] Eight readings (excluding the highest and lowest ones) were averaged to calculate the bilateral hindpaw weight-bearing values. Weight bearing data were analyzed as the ratio between right (fracture) and left hindpaw weight bearing values ((2R/(R+L))×100%). […]
The temperature of the hindpaw was measured using a fine wire thermocouple (Omega, Stanford, Conn., USA) applied to the paw skin. […]

[2] = tested on: inflammatory pain (mechanical hyperalgesia); format: in vivo, Sprague-Dawley rats
Protocol: The effect of orally administered zoledronic acid on inflammatory pain was examined using the rat complete Freund's adjuvant (CFA) model. Inflammatory pain was induced by injection of 100% CFA in a 75 μL volume into the left hind paws of Sprague-Dawley rats on day 0, followed by assessments on days 1-3. Animals were orally administered vehicle (control), zoledronic acid 18 mg/m^2 (or 3 mg/kg), zoledronic acid 120 mg/m^2 (or 20 mg/kg), or zoledronic acid 900 mg/m^2 (or 150 mg/kg) daily on days 1-3. Drug was dissolved in distilled water and prepared fresh daily. Animals were fasted prior to dosing. Under current FDA guidelines for extrapolating starting dosages from animals to humans, dosages expressed in mg/m^2 are considered equivalent between mammalian species. Thus, for example, 18 mg/m^2 in a rat is considered equivalent to 18 mg/m^2 in a human being, while 3 mg/kg in a rat may not be equivalent to 3 mg/kg in a human being.
Values for inflammatory pain (mechanical hyperalgesia) in the vehicle and drug-treated animals were obtained on day 0 prior to CFA injection, and at baseline and post-treatment on days 1-3. Pain was assessed using a digital Randall-Selitto device (dRS; IITC Life Sciences, Woodland Hills, Calif.). Animals were placed in a restraint sling that suspended the animal, leaving the hind limbs available for testing. Paw compression threshold was measured by applying increasing pressure to the plantar surface of the hind paw with a dome-shaped tip placed between the 3rd and 4th metatarsus. Pressure was applied gradually over approximately 10 seconds. Measurements were taken from the first observed nocifensive behavior of vocalization, struggle or withdrawal. A cut-off value of 300 g was used to prevent injury to the animal.
Reversal of inflammatory pain was calculated according to the formula:
% reversal=(Post-treatment−Post-CFA baseline)/(Pre-CFA baseline−Post-CFA baseline)×100.
The experiment was carried out using 9-10 animals per group.

SMILES: O=P(O)(O)C(O)(Cn1ccnc1)P(=O)(O)O [zoledronic acid]
- hindlimb weight bearing on fracture hindlimb [1]: 86 % of normal
- paw compression thresholds versus vehicle ([2]; oral 18 mg/m^2, entire measurement period after 30 minutes from start of treatment): higher than for vehicle
- paw compression thresholds versus vehicle ([2]; oral 120 mg/m^2 (20 mg/kg), all time points): approximately equal or inferior to vehicle
- toxicity ([2]; oral 900 mg/m^2 (150 mg/kg) daily days 1-3, two days after cessation of dosing): significant toxicity necessitating euthanization of all the animals in this group
- paw compression thresholds versus vehicle ([2]; oral 900 mg/m^2, day three): greater than for vehicle
- paw compression thresholds versus vehicle ([2]; two higher doses (120 and 900 mg/m^2), first two days of dosing): lower than vehicle
